# Assay results published in the supplement of paper PMC11451515.
# System: SEM cells
# Assay: cell viability relative to DMSO control; higher = less cytotoxic
# Settings: 48 h
# Outline: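 Leukemia cells (NOMO1 or SEM, 500 cells/well; P12-Ichikawa, 1000 cells/well) were seeded in 5 μl in 1536-well plates after at least four passages of adaptation to each medium. They received library compounds in DMSO by pin dosing, 11 threefold points from 47 μM to 0.79 nM. Luminescence with CellTiter-Glo One was read after 48 h at 37°C. Viability is stated per plate relative to DMSO wells, with cell-free wells as background.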
# [1] = HPLM + 10% dialyzed FBS, 0.000781 µM
# [2] = HPLM + 10% dialyzed FBS, 0.00234 µM
# [3] = HPLM + 10% dialyzed FBS, 0.00702 µM
# [4] = HPLM + 10% dialyzed FBS, 0.0211 µM
# [5] = HPLM + 10% dialyzed FBS, 0.0632 µM
# [6] = HPLM + 10% dialyzed FBS, 0.19 µM
# [7] = HPLM + 10% dialyzed FBS, 0.569 µM
# [8] = HPLM + 10% dialyzed FBS, 1.71 µM
# [9] = HPLM + 10% dialyzed FBS, 5.12 µM
# [10] = HPLM + 10% dialyzed FBS, 15.4 µM
# [11] = HPLM + 10% dialyzed FBS, 46.1 µM
# [12] = RPMI 5 mM glucose + 10% FBS, 0.000781 µM
# [13] = RPMI 5 mM glucose + 10% FBS, 0.00234 µM
# [14] = RPMI 5 mM glucose + 10% FBS, 0.00702 µM
# [15] = RPMI 5 mM glucose + 10% FBS, 0.0211 µM
# [16] = RPMI 5 mM glucose + 10% FBS, 0.0632 µM
# [17] = RPMI 5 mM glucose + 10% FBS, 0.19 µM
# [18] = RPMI 5 mM glucose + 10% FBS, 0.569 µM
# [19] = RPMI 5 mM glucose + 10% FBS, 1.71 µM
# [20] = RPMI 5 mM glucose + 10% FBS, 5.12 µM
# [21] = RPMI 5 mM glucose + 10% FBS, 15.4 µM
# [22] = RPMI 5 mM glucose + 10% FBS, 46.1 µM
# [23] = RPMI 5 mM glucose + 10% dialyzed FBS, 0.000781 µM
# [24] = RPMI 5 mM glucose + 10% dialyzed FBS, 0.00234 µM
# [25] = RPMI 5 mM glucose + 10% dialyzed FBS, 0.00702 µM
# [26] = RPMI 5 mM glucose + 10% dialyzed FBS, 0.0211 µM
# [27] = RPMI 5 mM glucose + 10% dialyzed FBS, 0.0632 µM
# [28] = RPMI 5 mM glucose + 10% dialyzed FBS, 0.19 µM
# [29] = RPMI 5 mM glucose + 10% dialyzed FBS, 0.569 µM
# [30] = RPMI 5 mM glucose + 10% dialyzed FBS, 1.71 µM
# [31] = RPMI 5 mM glucose + 10% dialyzed FBS, 5.12 µM
# [32] = RPMI 5 mM glucose + 10% dialyzed FBS, 15.4 µM
# [33] = RPMI 5 mM glucose + 10% dialyzed FBS, 46.1 µM
Structure (SMILES),cell viability [1] [%],cell viability [2] [%],cell viability [3] [%],cell viability [4] [%],cell viability [5] [%],cell viability [6] [%],cell viability [7] [%],cell viability [8] [%],cell viability [9] [%],cell viability [10] [%],cell viability [11] [%],cell viability [12] [%],cell viability [13] [%],cell viability [14] [%],cell viability [15] [%],cell viability [16] [%],cell viability [17] [%],cell viability [18] [%],cell viability [19] [%],cell viability [20] [%],cell viability [21] [%],cell viability [22] [%],cell viability [23] [%],cell viability [24] [%],cell viability [25] [%],cell viability [26] [%],cell viability [27] [%],cell viability [28] [%],cell viability [29] [%],cell viability [30] [%],cell viability [31] [%],cell viability [32] [%],cell viability [33] [%]
Cc1c[nH]c(/C=C2\C(=O)Nc3ccccc32)c1CCC(=O)O,102,107,112,103,89.8,90.1,69.7,51.6,42.6,26.7,39,61.2,83.1,83.6,64.7,72.7,49.3,50.6,34.1,27.6,28.1,26.6,107,105,99.6,94.7,90.8,75.8,67.6,47.1,33.6,25.7,46.5
O=C/1\C=C(/OC(=C1)/C2=C3SC4=C(SC3=CC=C2)C=CC=C4)N5CCOCC5,74.3,84.1,92.6,21.5,99.7,105,102,104,96.3,90.3,86.7,85.8,92.7,101,15.8,109,117,108,105,106,105,112,91.5,87.6,88,15.5,93,99.1,96,108,91.4,85.5,91.3
CNC(=O)[C@H](Cc1ccccc1)NC(=O)[C@H](CC(C)C)[C@H](CSc1cccs1)C(=O)NO,83,82.9,90,96,87.5,110,100,95.7,80.4,57.7,24.5,95.9,75.4,96.3,105,74.8,90.6,89.8,97.6,77.7,45.8,25.4,86.5,69.4,75.4,82.2,67.2,81.7,90.6,78.4,70.6,40.4,21.5
CC/1=C/N([C@@H]2C[C@@H](O)[C@H](CO)O2)C(=O)NC1=O,78.6,82,71.8,94.7,74,75.8,86.4,84.1,54.1,67.9,30.7,113,97.1,100,97.4,76.5,99.3,115,95.8,53.2,80.4,38,81.7,74.4,76.5,79.2,45.6,64.3,73.7,62.3,44.3,56.9,29.3
O=C(NC1CCNCC1)c1n[nH]cc1NC(=O)c1c(Cl)cccc1Cl,93,95.9,103,127,118,119,98.8,16.4,7.23,5.22,3.82,,,,,,,,,,,,108,97.6,126,115,118,121,129,24.6,7.87,5.31,3.76
COc1ccc(Cc2nccc3cc(OC)c(OC)cc23)cc1OC,105,126,111,131,126,124,127,128,134,121,88,110,125,117,120,131,130,118,109,123,110,53.9,109,107,110,110,99.5,109,105,118,94,111,54.3
C[C@H](NC(=O)C(=O)Nc1ccccc1C(C)(C)C)C(=O)N[C@@H](CC(=O)O)C(=O)COc1c(F)c(F)cc(F)c1F,89.4,106,103,73.1,117,113,123,104,58.4,12.6,18.2,99.5,103,117,78,119,112,127,104,64.9,9.34,5.77,90.8,109,104,74.8,118,114,113,109,56.9,10.3,6.8
CO/N=C(/C(=O)N[C@@H]1C(=O)N2C(C(=O)O)=C(Cn3ccc(=N)n3CCO)CS[C@H]12)c1csc(N)n1,88.8,90.5,115,108,112,122,97.6,117,121,132,127,123,95,130,136,130,140,125,147,122,151,138,,,,,,,,,,,
NC(=O)c1ccc(-c2nc(-c3ccc4c(c3)OCCO4)c(-c3ccccn3)[nH]2)cc1,116,124,109,119,120,136,135,132,143,130,126,100,112,96.3,114,105,111,102,110,119,112,108,119,126,111,137,121,118,124,131,122,138,146
CCC(=O)O[C@@]1([C@@H](C)C[C@H]2[C@@H]3CCC/4=C/C(=O)/C=C\[C@]4(C)[C@@]3(F)[C@@H](O)C[C@]12C)C(=O)CCl,86,92.1,91.3,57.7,71.1,69.8,57,72.3,61.8,66.4,63.4,88.5,95.4,95.9,51.3,67.8,62.6,65.1,66.1,67.6,56,66.9,85.2,81,91.4,49.4,63.3,64.6,64.8,54.1,64.1,55.6,40.7
CN(C)Cc1ccc(-c2nc3cccc4c3n2CCNC4=O)cc1,100,105,93.5,114,114,118,122,121,127,119,113,103,106,119,117,109,127,94.7,120,129,109,115,91.4,96.3,107,94.7,97.8,107,93,98.7,105,110,98.3
CC(=O)N1CCN(c2ccc(OCc3nn(C)c(C)c3-c3cccc4c(CCCOc5cc(C)c(Cl)c(C)c5)c(C(=O)O)n(Cc5cccnc5)c34)cc2)CC1,78.5,91.7,106,75.1,111,118,117,105,99.3,97.4,2.86,97.6,84.3,97.8,77.5,97.3,104,117,100,82.5,54,1.85,96.3,101,106,81.2,111,112,110,121,94.6,77.5,1.96
COc1cc(N2CCC(O)CC2)ccc1Nc1cc(Nc2ccccc2[S+](=O)([O-])C(C)C)c2cc[nH]c2n1,87.5,71.5,79.4,79.2,81.4,58.7,34.3,83.4,44,17.7,22.2,,,,,,,,,,,,93.2,94.6,82.4,96.8,86.3,60.7,27.6,81.1,53.9,21.1,18.3
CC(C)(C)/[N+]([O-])=C/c1ccc([S+](=O)([O-])[O][Na])cc1[S+](=O)([O-])[O][Na],88.7,76.3,84.5,99.9,84.6,98.6,101,90.3,88.1,99.2,94.9,115,83.1,86.9,109,105,124,110,108,116,91.2,108,95.7,105,102,94.1,98.8,120,117,104,113,105,110
COc1cc2nccc(Oc3ccc(NC(=O)Nc4ccc(F)cc4F)c(F)c3)c2cc1OC,103,86,63.8,74.4,50.7,32.3,41.6,42.2,34.9,36.4,20,118,115,87.7,88.9,71.9,59,55.9,51.6,56.4,53.6,13.3,72.7,89,51.1,62.2,41.6,37,34.1,36.4,33.4,33.3,12.6
COC(=O)N1CCN(Cc2cccc(NC(=O)Nc3ccc(C)nc3)c2F)CC1,96.1,95.2,105,108,99.2,105,86.7,100,100,102,73.7,122,120,120,116,119,124,124,114,116,108,96,90.3,107,109,106,94.7,112,94.6,90.1,90.7,86.4,65.3
